{"source": "paper PMC3174134", "about": "“Lucanthone and Its Derivative Hycanthone Inhibit Apurinic Endonuclease-1 (APE1) by Direct Protein Binding” (PLoS ONE, 2011)", "key": {"[1]": {"system": "APE1 mutant proteins", "assay": "Cleavage of mutant APE1 proteins by lucanthone, Western blot", "design": "species or system human", "conditions": "100 µM lucanthone, 37°C, 2 h", "method": "(§1) Total purified protein concentration was determined by the ratio of A280/A260. 250 ng of APE1 treated with lucanthone or hycanthone (0.05–100 µM) for 2 h at 37°C in final volume of 30 µl were mixed with an equal volume of gel loading buffer (0.001% bromophenol blue, 4% SDS, 10% 2-ME, 20% glycerol, and 125 mM Tris pH 6.8) and denatured at 95°C for 5 min. Total protein concentration in cell extracts was determined using the Bradford assay (BioRad, Hercules, CA) and 25 µg of total protein from soluble or insoluble cell fractions were mixed with an equal volume of gel loading buffer (0.001% bromophenol blue, 4% SDS, 10% 2-ME, 20% glycerol, and 125 mM Tris pH 6.8) and denatured at 95°C for 5 min. This mixture was separated by SDS-PAGE (4% stacking, 7.5% resolving gel) for 2–3 h at 40 mA on a BioRad MiniPROTEAN II Electrophoresis Cell. To detect proteins, proteins were transferred onto a trans-Blot nitrocellulose membrane (0.45 µm; BioRad) overnight at 4°C at 15 mA in standard Tris-Glycine buffer containing 20% ethanol. […] Chemi-luminescence was developed using an ECL kit according to the manufacturer's instructions and detected by exposing the blot to HyperfilmECL for 30 s–3 min. […]"}, "[2]": {"biological_target": "T1, APE1 mutant proteins (Homo sapiens, UniProt P27695, W280S)", "T1 construct": "made in house", "T1 sequence (P27695 2-318 W280S)": "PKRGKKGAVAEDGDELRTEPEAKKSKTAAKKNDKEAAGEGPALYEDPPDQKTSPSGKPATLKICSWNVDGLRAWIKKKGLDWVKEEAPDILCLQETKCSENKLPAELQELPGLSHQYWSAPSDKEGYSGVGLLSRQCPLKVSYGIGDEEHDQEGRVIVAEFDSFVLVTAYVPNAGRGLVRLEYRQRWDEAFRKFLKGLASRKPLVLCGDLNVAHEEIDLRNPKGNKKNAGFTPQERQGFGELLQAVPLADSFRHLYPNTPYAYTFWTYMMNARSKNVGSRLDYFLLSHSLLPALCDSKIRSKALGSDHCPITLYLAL", "assay": "Cleavage of mutant APE1 proteins by lucanthone, Western blot", "conditions": "100 µM lucanthone, 37°C, 2 h", "method": "as §1"}, "[3]": {"biological_target": "T2, human Nth (Homo sapiens, UniProt P78549)", "T2 sequence (P78549 23-304)": "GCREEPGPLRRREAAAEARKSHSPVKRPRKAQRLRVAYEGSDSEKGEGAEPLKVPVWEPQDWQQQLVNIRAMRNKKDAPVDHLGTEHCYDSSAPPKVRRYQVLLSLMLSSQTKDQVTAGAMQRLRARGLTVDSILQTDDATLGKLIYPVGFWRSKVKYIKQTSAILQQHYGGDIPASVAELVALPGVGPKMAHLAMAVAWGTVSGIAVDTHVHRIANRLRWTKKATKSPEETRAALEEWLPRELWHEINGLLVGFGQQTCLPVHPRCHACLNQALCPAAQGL", "assay": "Circular dichroism of human Nth with lucanthone", "conditions": "140 µM lucanthone, 37°C, 60 min"}, "[4]": {"biological_target": "T3, APE1 single mutants (F266A or W280S) (Homo sapiens, UniProt P27695, F266A)", "T3 construct": "made in house", "T3 sequence (P27695 2-318 F266A)": "as the sequence (P27695 2-318 W280S) above, with F265A, S279W counted along it", "assay": "Endonuclease activity of APE1 hydrophobic site mutants with lucanthone", "format": "biochemical", "conditions": "100 µM lucanthone, 2 h, 37°C", "method": "APE1 endonuclease activity was determined using an assay that measures the conversion of plasmid DNA from supercoiled to relaxed form by incision at an abasic site [35]–[36]. Briefly, the substrate used was 200 ng of depurinated pUC18 DNA in 10 µl of 1× APE1 buffer containing 50 mM Hepes, pH 7.4, 150 mM KCl, 5 mM MgCl2 and 100 µg/ml of BSA in presence of different concentrations of the cell extract (1 µl containing 0–55 ng of total protein). Similar reactions mixtures were set up with untreated pUC18, which served as the internal control. This reaction mixture was incubated at 37°C for 15 min, and the reaction was stopped by addition of alkaline stop mix (0.25% bromocresol green in 0.25N NaOH, 50% glycerol) and left at room temperature for 10–15 min. Then the products were resolved on a 0.8% agarose gel in 40 mM Tris-acetate and 2 mM EDTA for 2 h. The gel was stained with ethidium bromide to visualize supercoiled and relaxed plasmid DNA and imaged with a digital imaging system and the area under the supercoiled and relaxed form was determined. Final calculations were done in femtomoles (fmol) of abasic sites incised/min/mg protein with normalization done using Pyruvate Kinase units (PKU) present in these extracts. […] The endonuclease activity inhibition by lucanthone was analyzed using standard Lineweaver-Burke Plot to determine if the inhibition was competitive or non-competitive."}, "[5]": {"system": "APE1 mutants F266A, F266C, F266A/W280A, D210N", "assay": "Circular dichroism of APE1 mutant proteins with lucanthone", "design": "species or system human", "conditions": "140 µM lucanthone, 14 µM protein, 37°C, 60 min", "method": "(§2) APE1 and its mutant proteins (10 mg/ml), 50 µl (500 µg) (14 µM) in APE1 buffer (50 mM HEPES, pH 7.4, 150 mM KCl, 5 mM MgCl2), were mixed with lucanthone/hycanthone (1 mg/ml), 50 µl (50 µg), 140 µM and incubated at 37°C for 60 min and far UV-CD spectra were recorded at NSLS U11 beam line at BNL. Lucanthone and hycanthone were also scanned as drug controls. The scanning parameters used were a 0.001 cm path length quartz cell, scanning wavelengths from 260 to 170 nm, bandwidth of 0.5 nm, digital integration time of 1 s, time constant of 200 ms, step size of 1 nm, and sensitivity of 200 µV. The data were corrected with blank subtraction from APE1 buffer alone. The secondary structure for APE1 with or without lucanthone or hycanthone was analyzed using CDSSTR program DICHROWEB [38]."}, "[6]": {"biological_target": "T4, APE1 mutants F266A, F266C, F266A/W280A, D210N (Homo sapiens, UniProt P27695, F266A/W280A)", "T4 construct": "made in house", "T4 sequence (P27695 2-318 F266A/W280A)": "as the sequence (P27695 2-318 W280S) above, with F265A, S279A counted along it", "assay": "Circular dichroism of APE1 mutant proteins with lucanthone", "conditions": "140 µM lucanthone, 14 µM protein, 37°C, 60 min", "method": "as §2"}, "[7]": {"system": "tubulin", "assay": "Tubulin stability in U251 1-5 whole cell extracts, Western blot", "conditions": "lucanthone 2.5-100 µM; CRT at 200 µM", "method": "as §1"}}, "data": [{"smiles": "CCN(CC)CCNc1ccc(C)c2sc3ccccc3c(=O)c12", "note": "[lucanthone, 1-[2-diethylaminoethylamino]-4-methylthioxanthen-9-one]", "values": [{"measurement": "Cleavage of hydrophobic site mutants except W280S", "setting": "[1]", "value": "did not undergo cleavage"}, {"measurement": "Cleavage of W280S mutant", "setting": "[2]", "value": "significant cleavage"}, {"measurement": "Conformational change of human Nth (CD)", "setting": "[3]", "value": "little conformational changes"}, {"measurement": "Inhibition of endonuclease activity of single mutants F266A or W280S", "setting": "[4]", "value": "no inhibition was detected"}, {"measurement": "Conformational change of wild type and D210N active site mutant APE1 (CD)", "setting": "[5]", "value": "able to induce conformational changes"}, {"measurement": "Conformational change of double mutant F266A/W280A (CD)", "setting": "[6]", "value": "almost no conformational change"}, {"measurement": "Effect on tubulin protein", "setting": "[7]", "value": "unaffected"}]}]}
